Earlier results as cited in patent US9259452B2, “Deacetylase inhibitor therapy” (Celgene Corporation, priority 2006, dated 2016).
Where two headings read alike, the source gives them in different places.

Conditions: cited from earlier work; for ECG effects reported: clinical trials

Compound: O=C(CCCCCCC(=O)Nc1ccccc1)NO [SAHA, Suberoylanilide Hydroxamic Acid]
- ECG effects reported: non-specific T-wave or ST segment abnormalities

Compound: Cc1[nH]c2ccccc2c1CCNCc1ccc(/C=C/C(=O)NO)cc1 [LBH589]
- Patients with QTc prolongation of greater than 500 ms (12 patients treated at higher dose levels): 42%
- Patients with QTc prolongation of greater than 500 ms (of 12 patients treated at higher dose levels): 5

Compound: O=C(/C=C/c1ccc(CN(CCO)CCc2cc3ccccc3[nH]2)cc1)NO [LAQ824]
- Change in QTc interval (77 patients treated): statistically significant increase
- ECG effects reported: non-specific T-wave or ST segment abnormalities
- Patients having QTc prolongation of greater than 60 ms (of 77 patients treated): 10%
- Event in one patient with QTc greater than 500 ms (when re-treated at a lower dose level): torsades de pointes

Compound: O=C(/C=C/c1cccc(S(=O)(=O)Nc2ccccc2)c1)NO [PXD101]
- Supraventricular tachycardia reported (phase I trials): dose limiting toxicity
